Results published in patent US20230070731A1, “COMPOSITIONS FOR SMALL MOLECULE CONTROL OF PRECISE BASE EDITING OF TARGET NUCLEIC ACIDS AND METHODS OF USE THEREOF” (THE TRUSTEES OF THE UNIVERSITY OF PENNSYLVANIA, priority 2020, published 2023).

Assays:
BL21(DE3) E. coli = test: Bacterial DNA deaminase rifampicin mutagenesis assay (acquired rifampin resistance); format: cell-based; settings: expression in E. coli
Description: In initial studies, a foreign protein/domain was inserted into an enhanced hyperactive version of AID described in U.S. patent application Ser. No. 16/025,261 (See for example, SEQ ID NO: 20 of the '261 patent application) which is incorporated herein by reference as though set forth in full. This mutant version of the human DNA deaminase AID, involved in antibody maturation was assessed and the loop regions which appeared to be tolerant to insertion of control elements (e.g., Green Fluorescent Protein GFP fragments) were identified as described hereinbelow. Several candidate locations for insertion were identified. We used an E. coli-based rifampin mutagenesis assay to evaluate activity (See Kohli et al., J Biol Chem. (2009) 284:pages 22898-904). In this assay we measure the activity level of a mutator by measuring how many E. coli can be turned resistant to the antibiotic rifampin when the enzyme is turned on.
The mutation frequency of various DNA deaminases, including insertion constructs, were determined using a modified version of previously reported rifampin mutagenesis assay (Kohli, JBC 2009). […] The mutation frequencies were then calculated by the ratio of rifampicin resistant colonies to total population. […]

[1] = system: fluorescein (FAM)-labeled oligonucleotide substrate containing a single cytosine; test: In vitro DNA deaminase oligonucleotide assay; format: biochemical; settings: result in words
Description: For in vitro assays, purified intact, optGFP-inserted, or split DNA deaminases were expressed in BL21(DE3) cells that co-express the Trigger Factor (TF) chaperone, as previously described^33. Briefly, 600 mL cultures were grown to an OD600 of 0.6 at 37° C. Cultures were shifted to 16° C. for 16 hours after induction with 1 mM IPTG. For AID variants, the pelleted cells were resuspended in 50 mM Tris-Cl (pH 7.5) 150 mM NaCl, 10% glycerol (wash buffer) and lysed through sonication. The soluble fraction was filtered after high-speed centrifugation and incubated with 3 mL of Amylose Resin (NEB) for 1 hr at 4° C. The resin was washed extensively prior to elution with wash buffer plus 10 mM maltose. Total protein was quantified by comparison to a BSA standard curve. For A3A variants, the pelleted cells were resuspended in 50 mM Tris-Cl (pH 7.5) 150 mM NaCl, 10% glycerol, 25 mM imidazole (wash buffer) and lysed through sonication. The soluble fraction was filtered after high-speed centrifugation and incubated with 3 mL of HisPur cobalt resin (Thermo) for 1 hr at 4° C. […]
For the in vitro assay, a fluorescein (FAM)-labeled oligonucleotide substrate was used containing a single cytosine, along with a product control oligonucleotide containing uracil at the same location. […] Product formation was quantified using ImageJ by taking the ratio of substrate to product under each condition. […]

## AID(WT): unmutated AID (activation induced deaminase)
BL21(DE3) E. coli
  Rif^R increase relative to catalytically inactive mutant AID(E58A): 12 fold

## A3A: human A3 enzyme APOBEC3A DNA deaminase
[1]
  in vitro deaminase activity: tolerated optGFP insertion
